Entries after “also recorded” stand apart in the source; their conditions may differ.
B1: Y27R: variant of the R domain (lycopene cyclase) of CarRP with the substitution Y27R (protein)
chain: MLLTYMEVHLYYTLPVLGVLSWLSRPRYTATDALKFKFLTLVAFTTASAWDNYIVYHKAWSYCPTCVTAVIGYVPLEEYMFFIIMTLLTVAFTNLVMRWHLHSFFIRPETPVMQSVLVRLVPITALLITAYKAWHLAVPGKPLFYGSCILWYACPVLALLWFGAGEYMMRRPLAVLVSIALPTLFLCWVDVVAIGAGTWDISLATSTGKFVVPHLPVEEFMFFALINTVLVFGTCAI

Key:
lycopene cyclase (CarRP) [1] = target: T1, lycopene cyclase (CarRP) (Mucor circinelloides f. lusitanicus, UniProt Q9UUQ6); assay: In vitro enzymatic assay of lycopene cyclase in yeast microsomes; format: biochemical; settings: wild type CarRP (or CarR); lycopene 50˜350 mol/L as substrate, 30° C., 16 h
T1 construct: made in house; host or cells: Yarrowia lipolytica (po1f-derived strains); crude microsomal fraction
T1 sequence (Q9UUQ6 whole entry): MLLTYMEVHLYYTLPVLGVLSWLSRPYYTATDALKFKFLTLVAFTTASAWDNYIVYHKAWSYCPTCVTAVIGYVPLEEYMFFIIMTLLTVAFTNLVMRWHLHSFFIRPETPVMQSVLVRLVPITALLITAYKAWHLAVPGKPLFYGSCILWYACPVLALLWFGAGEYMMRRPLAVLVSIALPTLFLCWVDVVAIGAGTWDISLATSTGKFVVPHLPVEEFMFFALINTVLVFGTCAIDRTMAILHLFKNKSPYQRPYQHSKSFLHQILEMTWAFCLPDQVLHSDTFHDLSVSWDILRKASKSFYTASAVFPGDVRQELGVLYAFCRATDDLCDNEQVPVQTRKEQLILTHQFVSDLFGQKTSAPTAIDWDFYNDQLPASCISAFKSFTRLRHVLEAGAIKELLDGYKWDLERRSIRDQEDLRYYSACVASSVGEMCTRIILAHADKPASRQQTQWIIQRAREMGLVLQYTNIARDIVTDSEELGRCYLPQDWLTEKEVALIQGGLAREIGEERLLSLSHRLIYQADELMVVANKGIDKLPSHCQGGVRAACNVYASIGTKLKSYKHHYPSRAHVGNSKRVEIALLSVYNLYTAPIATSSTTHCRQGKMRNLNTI
Description: (§1) To test this hypothesis, possible correlations between lycopene cyclase activity and lycopene concentration were examined using an in vitro enzymatic assay that employed a yeast microsomal system, as CarRP is predicted to be a membrane protein with six transmembrane helices (FIG. 26). […] This supported the hypothesis that lycopene cyclase was substrate-inhibited, thus creating a major bottleneck in carotenoid biosynthesis.
(§2) Yeast microsomes for in vitro enzymatic assays were prepared as described previously (Pompon et al., 1996). Briefly, strains harboring wild type or mutated CarRP were grown overnight in YNB media at 30° C. and then inoculated into 200 mL YNB media to an initial OD600 of 0.1. After 24 h cultivation, cells were collected by centrifugation at 4,000 rpm for 10 min. Resuspension of the cells in TEK buffer (50 mM Tris-HCl, pH 6.8, 1 mM EDTA, 0.1 M KCl) followed, and the solution was kept at room temperature for 5 min. Afterwards, the cells were recovered by centrifugation, washed in TES buffer (50 mM Tris-HCl, pH 6.8, 1 mM EDTA, 0.6 M sorbitol), resuspended in TESM buffer (50 mM Tris-HCl, pH 6.8, 1 mM EDTA, 0.6 M sorbitol, 14 mM 2-mercaptoethanol), and left at room temperature for 10 min. […] The solution was vortex for 10 min, and the organic phase was collected by centrifugation and analyzed by HPLC.

lycopene cyclase (CarRP) [2] = target: T2, lycopene cyclase (CarRP) (Mucor circinelloides f. lusitanicus, UniProt Q9UUQ6, Y27R); assay: as above; format: biochemical; settings: CarRP (or CarR) variant compared to wild type; relative catalytic activity, FIG. 16D
T2 construct: made in house; host or cells: Yarrowia lipolytica (po1f-derived strains); crude microsomal fraction
T2 sequence (Q9UUQ6 whole entry Y27R): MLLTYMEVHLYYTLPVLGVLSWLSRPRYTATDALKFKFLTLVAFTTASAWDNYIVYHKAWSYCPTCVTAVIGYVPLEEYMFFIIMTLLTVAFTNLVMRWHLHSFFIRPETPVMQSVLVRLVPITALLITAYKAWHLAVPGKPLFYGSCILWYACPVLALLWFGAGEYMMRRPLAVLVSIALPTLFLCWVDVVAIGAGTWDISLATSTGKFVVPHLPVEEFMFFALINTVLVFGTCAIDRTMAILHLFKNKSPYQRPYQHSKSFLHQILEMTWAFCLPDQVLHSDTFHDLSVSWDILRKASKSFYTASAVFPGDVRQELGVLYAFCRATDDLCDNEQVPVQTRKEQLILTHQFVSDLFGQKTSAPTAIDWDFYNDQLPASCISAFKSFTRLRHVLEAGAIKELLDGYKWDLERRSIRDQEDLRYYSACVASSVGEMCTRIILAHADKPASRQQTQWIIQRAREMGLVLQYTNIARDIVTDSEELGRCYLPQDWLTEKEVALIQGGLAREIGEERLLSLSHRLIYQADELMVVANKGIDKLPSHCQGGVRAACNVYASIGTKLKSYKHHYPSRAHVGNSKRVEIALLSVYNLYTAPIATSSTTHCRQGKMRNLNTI
Description: as §1, §2

Molecule | lycopene cyclase activity with respect to lycopene concentration (substrate inhibition) (lycopene cyclase (CarRP) [1]) | substrate inhibition of lycopene cyclase variant by lycopene (lycopene cyclase (CarRP) [2])
CC(C)=CCC/C(C)=C/C=C/C(C)=C/C=C/C(C)=C/C=C/C=C(C)/C=C/C=C(C)/C=C/C=C(\C)CCC=C(C)C [lycopene] | bi-phasic; also recorded: inhibited its downstream enzyme, lycopene cyclase, through substrate inhibition | 
B1 |  | complete loss of substrate inhibition without reduction in enzyme activity; also recorded: completely free of substrate inhibition

Reference: patent US20250101485A1, “METHODS OF PRODUCING C[…] ACID WHEY” (priority 2022, published 2025)
